Results published in patent publication US4175081A, “5-Substituted thiadiazole ureas” (priority 1977, dated 1979).

Legend:
Corn (CN) [1] = test: Post-emergence herbicide test; type: in vivo; conditions: Zea mays, 336 h, two weeks after treatment; for pest or weed control at 4483.4 g/ha: 4 lb/acre
Protocol: (§1) All crop and weed species were planted individually in 3' plastic pots containing potting soil. Four seeds each of corn, cotton, and snapbeans were seeded to a depth equal to the diameter of the seed. All other species were surface seeded and sprinkled with screened soil in an amount sufficient to cover the seed. Immediately after planting, all pots were watered by sub-irrigation in greenhouse trays. Pots for the pre-emergence phase were seeded one day before treatment.
(§2) Planting dates for the post-emergence phase were varied so that all seedlings would reach the desired stage of development simultaneously. The proper stage of seedling development for treatment in the post-emergence phase is as follows:
(§3) Compounds were tested at rates of application equivalent to 8 lbs. of actual compound per acre in a spray volume of 38 gallons per acre. Spray hood constants required to deliver the above volume are as follows:
(§4) Formulations for spray applications were prepared in 50 ml volumes with the following three components:
(§5) Formulations for the 4 lbs/acre rate were prepared by adjusting the amount of active ingredient accordingly.
(§6) Spray applications were made in a hood containing a removable belt and fixed spray nozzle. For passage through the spray hood, one pot of each specie (pre-emergence phase) was placed on the rear half of the flat. Treatments were removed to the greenhouse after spraying. Watering during the observation period was done only by sub-irrigation.
(§7) Two weeks after treatment, pre- and post-emergence injury or control was visually rated, and the results were as shown in the following tables. Pre-emergence data are provided in TABLE III and post-emergence data are provided in TABLE IV, for compounds having the formula illustrated in TABLE I. Correspondingly, pre-emergence and post-emergence data, respectively, are set forth in TABLES V AND VI, for compounds having the formula illustrated in TABLE II.

Bean (BN) [2] = test: Post-emergence herbicide test; type: in vivo, Phaseolus vulgaris var. Black Valentine; conditions: Phaseolus vulgaris, post-emergence, 336 h, two weeks after treatment; for pest or weed control at 4483.4 g/ha: 4 lb/acre
Protocol: (§8) Bean (BN)--Phaseolus vulgaris var. Black Valentine
as §1, §2
Beans: primary leaves expanded, growing point at primary leaf nodes.
(§9) Spray hood constants required to deliver the above volume are as follows:
as §4, §5, §6, §7

Johnson grass (JG) [3] = test: Post-emergence herbicide test; type: in vivo, Sorgum helepense; conditions: Sorghum halepense, 336 h, 4 lb/acre, two weeks after treatment
Protocol: (§10) Johnson grass (JG)--Sorgum helepense
as §1, §2, §3, §4, §5, §6, §7

Turnip (TP) [4] = test: Post-emergence herbicide test; type: in vivo, Brassica sp.; conditions: Brassica rapa, post-emergence, 336 h, two weeks after treatment; for pest or weed control at 2241.7 g/ha: 2 lb/acre; for pest or weed control at 4483.4 g/ha: 4 lb/acre
Protocol: (§11) Turnip (TP)--Brassica sp.
as §1, §2
(§12) Pigweed and turnips: 1 or 2 true leaves above visible cotyledons.
as §9
(§13) Formulations for spray applications were prepared in 50 ml volumes with the following three components: […]
as §6, §7

Barnyard grass (BG) [5] = test: Post-emergence herbicide test; type: in vivo; conditions: Echinochloa crus-galli, 336 h, 4 lb/acre, two weeks after treatment
Protocol: (§14) Barnyard grass (BG)--Echinochloa crus-galli
as §1, §2, §3, §4, §5, §6, §7

Crabgrass (CG) [6] = test: Post-emergence herbicide test; type: in vivo, Digitaria sanquinalis; conditions: Digitaria sanguinalis, post-emergence, 336 h, two weeks after treatment; for pest or weed control at 4483.4 g/ha: 4 lb/acre
Protocol: (§15) Crabgrass (CG)--Digitaria sanquinalis
as §1, §2, §9, §13, §6, §7

Cotton (CT) [7] = test: Post-emergence herbicide test; type: in vivo, Gossypium hirsutum var. DPL smooth leaf; conditions: Gossypium hirsutum, post-emergence, 336 h, two weeks after treatment; for pest or weed control at 4483.4 g/ha: 4 lb/acre
Protocol: (§16) Cotton (CT)--Gossypium hirsutum var. DPL smooth leaf
as §1, §2
Cotton: first true leaf 1' in length; expanded cotyledons.
as §9, §4, §5, §6, §7

Amaranth pigweed (PW) = test: Post-emergence herbicide test; type: in vivo, Amaranthus retroflexus; conditions: 336 h, two weeks after treatment; for pest or weed control at 2241.7 g/ha: 2 lb/acre; for pest or weed control at 4483.4 g/ha: 4 lb/acre
Protocol: Amaranth pigweed (PW)--Amaranthus retroflexus
as §1, §2, §12, §3, §4, §5, §6, §7

Corn (CN) [8] = test: Pre-emergence herbicide test; type: in vivo; conditions: Zea mays, 336 h, two weeks after treatment
Protocol: as §1, §3, §4, §5, §6, §7

Crabgrass (CG) [9] = test: Pre-emergence herbicide test; type: in vivo, Digitaria sanquinalis; conditions: Digitaria sanguinalis, pre-emergence, 336 h, two weeks after treatment
Protocol: as §15, §1, §9, §13, §6, §7

Barnyard grass (BG) [10] = test: Pre-emergence herbicide test; type: in vivo; conditions: Echinochloa crus-galli, 336 h, two weeks after treatment
Protocol: as §14, §1, §3, §4, §5, §6, §7

Bean (BN) [11] = test: Pre-emergence herbicide test; type: in vivo, Phaseolus vulgaris var. Black Valentine; conditions: Phaseolus vulgaris, 336 h, two weeks after treatment
Protocol: as §8, §1, §3, §4, §5, §6, §7

Johnson grass (JG) [12] = test: Pre-emergence herbicide test; type: in vivo, Sorgum helepense; conditions: Sorghum halepense, 336 h, two weeks after treatment
Protocol: as §10, §1, §3, §4, §5, §6, §7

Turnip (TP) [13] = test: Pre-emergence herbicide test; type: in vivo, Brassica sp.; conditions: Brassica rapa, pre-emergence, 336 h, two weeks after treatment
Protocol: as §11, §1, §9, §13, §6, §7

Cotton (CT) [14] = test: Pre-emergence herbicide test; type: in vivo, Gossypium hirsutum var. DPL smooth leaf; conditions: Gossypium hirsutum, 336 h, two weeks after treatment
Protocol: as §16, §1, §3, §4, §5, §6, §7

Structure (SMILES)	pest or weed control at 4483.4 g/ha (Corn (CN) [1]) [%]	pest or weed control at 4483.4 g/ha (Bean (BN) [2]) [%]	pest or weed control at 4483.4 g/ha (Johnson grass (JG) [3]) [%]	pest or weed control at 2241.7 g/ha (Turnip (TP) [4]) [%]	pest or weed control at 4483.4 g/ha (Turnip (TP) [4]) [%]	pest or weed control at 4483.4 g/ha (Barnyard grass (BG) [5]) [%]	pest or weed control at 4483.4 g/ha (Crabgrass (CG) [6]) [%]	pest or weed control at 4483.4 g/ha (Cotton (CT) [7]) [%]	pest or weed control at 2241.7 g/ha (Amaranth pigweed (PW)) [%]	pest or weed control at 4483.4 g/ha (Amaranth pigweed (PW)) [%]	also measured
CCC(C)=CCSc1nnc(NC(=O)NC)s1 [Example 50]	30	100	30	60	80	20	50	80	90	90	–
CNC(=O)Nc1nnc(SCCC(C)C)s1 [Example 51]	50	100	40	80	90	70	60	100	90	90	–
CNC(=O)Nc1nnc(SCCC#N)s1 [Example 52]	100	100	20	–	80	20	70	100	–	80	–
CNC(=O)Nc1nnc(SCCc2ccccc2)s1 [Example 53]	100	100	30	70	90	20	60	100	90	90	–
CNC(=O)Nc1nnc(SCC(C)=O)s1 [Example 54]	30	100	30	60	80	30	50	90	60	90	–
CNC(=O)Nc1nnc(SCc2ccc([N+](=O)[O-])cc2)s1 [Example 55]	20	100	30	60	90	20	40	50	90	90	–
CNC(=O)Nc1nnc(SCC(=O)OC)s1 [Example 56]	30	50	20	–	70	20	30	60	–	60	–
CCS(=O)(=O)c1nnc(NC(=O)NC)s1 [Example 81]	50	100	100	100	100	80	100	100	–	–	pest or weed control at 2241.7 g/ha (Corn (CN) [8]; 2 lb/acre): 0%; pest or weed control at 4483.4 g/ha (Corn (CN) [8]; 4 lb/acre): 0%; pest or weed control (Corn (CN) [1]; 2 lb/acre): 100%; pest or weed control (Crabgrass (CG) [9]; 2 lb/acre): 90%; pest or weed control at 4483.4 g/ha (Crabgrass (CG) [9]; 4 lb/acre): 90%; pest or weed control at 2241.7 g/ha (Barnyard grass (BG) [10]; 2 lb/acre): 60%; pest or weed control at 4483.4 g/ha (Barnyard grass (BG) [10]; 4 lb/acre): 60%; pest or weed control at 2241.7 g/ha (Bean (BN) [11]; 2 lb/acre): 60%; pest or weed control at 4483.4 g/ha (Bean (BN) [11]; 4 lb/acre): 60%; pest or weed control at 2241.7 g/ha (Johnson grass (JG) [12]; 2 lb/acre): 40%; pest or weed control at 4483.4 g/ha (Johnson grass (JG) [12]; 4 lb/acre): 40%; pest or weed control at 2241.7 g/ha (Bean (BN) [2]; 2 lb/acre): 100%; pest or weed control at 2241.7 g/ha (Turnip (TP) [13]; 2 lb/acre): 80%; pest or weed control at 4483.4 g/ha (Turnip (TP) [13]; 4 lb/acre): 80%; pest or weed control (Crabgrass (CG) [6]; 2 lb/acre): 100%; pest or weed control at 2241.7 g/ha (Cotton (CT) [14]; 2 lb/acre): 100%; pest or weed control at 4483.4 g/ha (Cotton (CT) [14]; 4 lb/acre): 100%; pest or weed control at 2241.7 g/ha (Cotton (CT) [7]; 2 lb/acre): 90%
